Results from paper PMC8400246, “Antimicrobial Activity and Action Mechanisms of Arg-Rich Short Analog Peptides Designed from the C-Terminal Loop Region of American Oyster Defensin (AOD)” (Marine Drugs, 2021).
Positions of bridges follow the written chain, without caps; N, C: chain ends. Residues, ends and D or L forms follow the SMILES beside them.

Key:
B. subtilis KCTC1021 = assay: Ultrasensitive radial diffusion assay (URDA), MEC; assay type: cell-based, Bacillus subtilis; conditions: B. subtilis KCTC1021, Gram +, 10 mM phosphate buffer pH 6.6, 37 °C, X-intercept of clearing zone vs log10 concentration, triplicate, averaged
Description: (§1) The antimicrobial activity of the AOD analogs was assessed with an ultrasensitive radial diffusion assay (URDA), as described previously. The antimicrobial activity of the analogs (from 31.3 to 1000 μg/mL, 5 μL volume) was tested against several bacteria, including Bacillus subtilis KCTC1021, Streptococcus mutans KCCM40105, Aeromonas hydrophila KCTC2358, Escherichia coli D31, E. coli ML35p, Pseudomonas aeruginosa KCTC2004, Salmonella enterica KCTC2514, and Shigella sonnei KCTC2009. In addition, Cutibacterium acnes KCTC3314, Staphylococcus epidermidis KCTC1917, and Candida albicans KCTC7965 were used for the anti-acne activity test. All except C. acnes KCTC3314 were grown overnight for 18 h in tryptic soy broth (TSB; for bacteria) or Sabouraud dextrose broth (SDB; for C. albicans) at the appropriate temperature (25 °C for A. hydrophila, 37 °C for the others). C. acnes was grown for 72 h in reinforced clostridial medium (RCM) under anaerobic conditions with an anaerobic gas-generating pouch (GasPak EZ; Becton Dickinson and Company, Sparks, MD, USA) at 37 °C. Following overnight or 72-h incubation, the bacterial and C. albicans suspensions were diluted to a McFarland turbidity standard level of 0.5 (Vitek Colorimeter #52-1210; Hach, Loveland, CO, USA) corresponding to approximately 10^8 colony forming units (CFU)/mL for bacteria and 10^6 CFU/mL for C. albicans. Diluted bacterial or C. albicans suspension (0.5 mL) was added to 9.5 mL underlay gel containing 5 × 10^6 or 5 × 10^4 CFU/mL in 10 mM phosphate buffer (pH 6.6) with 0.03% TSB (or RCM) or 0.03% SDB and 1% Type I low-electroendosmosis agarose. The AOD analogs were serially diluted two-fold in 5 µL acidified water (0.01% acetic acid; HAc) and each dilution was added to 2.5-mm diameter wells in the 1-mm thick underlay gel. After incubation for 3 h at either 25 °C (for A. hydrophila) or 37 °C (for the others), the bacterial or yeast suspension was overlaid with 10 mL double-strength overlay gel containing 6% TSB, RCM, or SDB with 10 mM phosphate buffer (pH 6.6) in 1% agarose. Plates were incubated for an additional 18–24 h (72 h for C. acnes) and the clearing zone diameters were measured. After subtracting the diameter of the well (2.5 mm), the clearing zone diameter was expressed in units (0.1 mm = 1 U).
(§2) The minimal effective concentration (MEC; μg/mL) of the AOD analogs was calculated as the X-intercept of a plot of clearing zone diameter units against the log10 of the peptide concentration. Piscidin 1, an α-helical AMP isolated from hybrid striped bass (Morone saxatilis × Morone chrysops) was used as a positive control.

C. acnes KCTC3314 = assay: Ultrasensitive radial diffusion assay (URDA), MEC; assay type: cell-based, Cutibacterium acnes; conditions: C. acnes KCTC3314, Gram +, anaerobic, RCM, 72 h, 37 °C, triplicate, averaged
Description: as §1, §2

S. epidermidis KCTC1917 = assay: Ultrasensitive radial diffusion assay (URDA), MEC; assay type: cell-based, Staphylococcus epidermidis; conditions: S. epidermidis KCTC1917, Gram +, pH 6.6, 37 °C, triplicate, averaged
Description: as §1, §2

S. mutans KCCM40105 = assay: Ultrasensitive radial diffusion assay (URDA), MEC; assay type: cell-based, Streptococcus mutans; conditions: S. mutans KCCM40105, Gram +, pH 6.6, 37 °C, triplicate, averaged
Description: as §1, §2

A. hydrophila KCTC2358 = assay: Ultrasensitive radial diffusion assay (URDA), MEC; assay type: cell-based, Aeromonas hydrophila; conditions: A. hydrophila KCTC2358, Gram -, pH 6.6, 25 °C, triplicate, averaged
Description: as §1, §2

E. coli D31 = assay: Ultrasensitive radial diffusion assay (URDA), MEC; assay type: cell-based, Escherichia coli; conditions: E. coli D31, Gram -, pH 6.6, 37 °C, triplicate, averaged
Description: as §1, §2

E. coli ML35p = assay: Ultrasensitive radial diffusion assay (URDA), MEC; assay type: cell-based, Escherichia coli; conditions: Gram -, pH 6.6, 37 °C, triplicate, averaged
Description: as §1, §2

P. aeruginosa KCTC2004 = assay: Ultrasensitive radial diffusion assay (URDA), MEC; assay type: cell-based, Pseudomonas aeruginosa; conditions: P. aeruginosa KCTC2004, Gram -, pH 6.6, 37 °C, triplicate, averaged
Description: as §1, §2

S. enterica KCTC2514 = assay: Ultrasensitive radial diffusion assay (URDA), MEC; assay type: cell-based, Salmonella enterica; conditions: S. enterica KCTC2514, Gram -, pH 6.6, 37 °C, triplicate, averaged
Description: as §1, §2

S. sonnei KCTC2009 = assay: Ultrasensitive radial diffusion assay (URDA), MEC; assay type: cell-based, Shigella sonnei; conditions: S. sonnei KCTC2009, Gram -, pH 6.6, 37 °C, triplicate, averaged
Description: as §1, §2

C. albicans KCTC7965 = assay: Ultrasensitive radial diffusion assay (URDA), MEC; assay type: cell-based, Candida albicans; conditions: C. albicans KCTC7965, yeast, SDB, pH 6.6, 37 °C, triplicate, averaged
Description: as §1, §2

[1] = test system: tested strains (bacteria and the yeast C. albicans); assay: URDA, overall antimicrobial activity; assay type: cell-based; conditions: all tested strains
Description: The antimicrobial activity of the AOD analogs was assessed with an ultrasensitive radial diffusion assay (URDA), as described previously. The antimicrobial activity of the analogs (from 31.3 to 1000 μg/mL, 5 μL volume) was tested against several bacteria, including Bacillus subtilis KCTC1021, Streptococcus mutans KCCM40105, Aeromonas hydrophila KCTC2358, Escherichia coli D31, E. coli ML35p, Pseudomonas aeruginosa KCTC2004, Salmonella enterica KCTC2514, and Shigella sonnei KCTC2009. In addition, Cutibacterium acnes KCTC3314, Staphylococcus epidermidis KCTC1917, and Candida albicans KCTC7965 were used for the anti-acne activity test. All except C. acnes KCTC3314 were grown overnight for 18 h in tryptic soy broth (TSB; for bacteria) or Sabouraud dextrose broth (SDB; for C. albicans) at the appropriate temperature (25 °C for A. hydrophila, 37 °C for the others). C. acnes was grown for 72 h in reinforced clostridial medium (RCM) under anaerobic conditions with an anaerobic gas-generating pouch (GasPak EZ; Becton Dickinson and Company, Sparks, MD, USA) at 37 °C. […] Plates were incubated for an additional 18–24 h (72 h for C. acnes) and the clearing zone diameters were measured. […]
The minimal effective concentration (MEC; μg/mL) of the AOD analogs was calculated as the X-intercept of a plot of clearing zone diameter units against the log10 of the peptide concentration. […]

100-bp DNA ladder = assay: DNA binding assay (electrophoretic mobility shift); conditions: 1 μg analog with 0.2 μg 100-bp DNA ladder, 37 °C, 60 min, 1.8% agarose gel with EtBr
Description: To evaluate the binding ability of the AOD analogs to intracellular components, a DNA binding assay was performed as previously described with minor modifications. The DNA-binding ability of the AOD analogs was assessed through observation of the inhibition of migration of DNA bands through agarose gels. A commercial 100-bp DNA ladder (0.2 μg) (Bioneer Corp., Daejeon, South Korea) was mixed with each analog (1 μg) in 0.01% acetic acid, and the resulting mixture was incubated at 37 °C for 60 min and then electrophoresed on 1.8% agarose gels containing 0.5 μg/mL ethidium bromide (EtBr). HAc (0.01%) was used as a negative control.
To determine the concentration required for the interaction of AOD analogs with DNA, a DNA binding assay was performed with various mixing ratios of analog A3 (0.25–1.0 μg/mL) and 100-bp DNA ladder (0.1–0.4 μg), as described above.

[2] = test system: 100-bp DNA ladder and DNA polymerase; assay: Competitive binding between DNA and DNA polymerase; conditions: 1 μg peptide, 0.2 μg 100-bp DNA ladder, DNA polymerase 1.0 μL (5 units/μL), 37 °C, 60 min
Description: To assess the preferential binding ability of the AOD analogs to DNA or DNA polymerase, a competitive binding assay was performed. Briefly, AOD analog was added to a reaction mixture containing DNA or DNA polymerase and incubated for 60 min at 37 °C. […] Piscidin 1 and 0.01% HAc were the positive and negative controls, respectively.

[3] = test system: E. coli DH5α genomic DNA (16S ribosomal gene); assay: DNA amplification (PCR) inhibition assay; assay type: biochemical, Escherichia coli; conditions: 1.5 µg of each analog, 0.2 µg E. coli DH5α gDNA, 30 cycles
Description: To determine whether AOD analogs target DNA amplification, the ability of the analogs to inhibit DNA amplification was assessed using E. coli DH5α genomic DNA (gDNA). Total gDNA was extracted using the phenol–chloroform method, as described previously. To assess the inhibition of DNA amplification, 1.5 µg AOD analog was added to the polymerase chain reaction (PCR) mixture. The PCR solution consisted of 0.2 µg purified gDNA, 5 µL 10× PCR buffer with MgCl2, 4 µL of each dNTP at 2.5 mM, 0.25 μL Ex Taq polymerase (Takara Bio, Shiga, Japan), 2.0 pmol each of primers 27F (5′-[…]-3′) and 1492R (5′-TACGGCTACCTTGTTACGA-CTT-3′), and up to 50 µL sterile distilled water. The PCR thermal cycling conditions were as follows: initial denaturation at 94 °C for 5 min; 30 cycles of 94 °C for 30 s, 55 °C for 30 s, and 72 °C for 2 min; and a final extension for 10 min at 72 °C. PCR was conducted using a Type 9700 Thermal Cycler (Perkin-Elmer, Norwalk City, CA, USA). The PCR products were confirmed through 1.5% agarose gel electrophoresis with 0.5 μg/mL EtBr. Piscidin 1 was used as a positive control and 0.01% HAc was used as a negative control.

V. parahaemolyticus gDNA = assay: Bacterial gDNA binding (electrophoretic mobility shift); set-up: species or system Vibrio parahaemolyticus; conditions: 1 μg of analog with V. parahaemolyticus gDNA, agarose gel
Description: To evaluate the binding ability of the AOD analogs to intracellular components, a DNA binding assay was performed as previously described with minor modifications. The DNA-binding ability of the AOD analogs was assessed through observation of the inhibition of migration of DNA bands through agarose gels. […] HAc (0.01%) was used as a negative control.

| Structure (SMILES) | Minimal Effective Concentration (B. subtilis KCTC1021) [µg/mL] | Minimal Effective Concentration (C. acnes KCTC3314) [µg/mL] | Minimal Effective Concentration (S. epidermidis KCTC1917) [µg/mL] | Minimal Effective Concentration (S. mutans KCCM40105) [µg/mL] | Minimal Effective Concentration (A. hydrophila KCTC2358) [µg/mL] | Minimal Effective Concentration (E. coli D31) [µg/mL] | Minimal Effective Concentration (E. coli ML35p) [µg/mL] | Minimal Effective Concentration (P. aeruginosa KCTC2004) [µg/mL] | Minimal Effective Concentration (S. enterica KCTC2514) [µg/mL] | Minimal Effective Concentration (S. sonnei KCTC2009) [µg/mL] | Minimal Effective Concentration (C. albicans KCTC7965) [µg/mL] | antimicrobial activity (in words) [1] | electrophoretic mobility of the DNA (DNA-binding ability) (100-bp DNA ladder) | competitive binding between DNA and DNA polymerase (electrophoretic mobility of DNA) [2] | inhibition of DNA amplification (PCR) [3] | electrophoretic mobility of V. parahaemolyticus gDNA (V. parahaemolyticus gDNA) |
| --- | --- | --- | --- | --- | --- | --- | --- | --- | --- | --- | --- | --- | --- | --- | --- | --- |
| CC(C)C[C@@H]1NC(=O)[C@H](CO)NC(=O)CNC(=O)[C@H](C)NC(=O)[C@@H](N)CSSC[C@@H](C(=O)O)NC(=O)[C@H]([C@@H](C)O)NC(=O)[C@H](CC(C)C)NC(=O)[C@H](CCCNC(=N)N)NC1=O [Analog A0] (H-CAGSLRLTC-OH; disulfide 1-9) | >100.0 | >100.0 | >100.0 | >100.0 | >100.0 | >100.0 | >100.0 | >100.0 | >100.0 | >100.0 | >125.0 | no activity against any of the tested strains |  |  |  |  |
| CC(=O)N[C@H]1CSSC[C@@H](C(N)=O)NC(=O)[C@H](CCCNC(=N)N)NC(=O)[C@H](CC(C)C)NC(=O)[C@H](CCCNC(=N)N)NC(=O)[C@H](CCCNC(=N)N)NC(=O)[C@H](Cc2c[nH]c3ccccc23)NC(=O)CNC(=O)[C@H](C)NC1=O [Analog A1] (Ac-CAGWRRLRC-NH2; disulfide 1-9) | 14.0 | >100.0 | >100.0 | 68.0 | 17.0 | 42.0 | >100.0 | 15.0 | 24.0 | 40.0 | >125.0 | much weaker antimicrobial activity than the other analogs | inhibited | inhibited | partially or completely inhibited |  |
| CC(C)C[C@@H]1NC(=O)[C@H](CCCNC(=N)N)NC(=O)[C@H](CC(C)C)NC(=O)[C@H](CCCNC(=N)N)NC(=O)[C@H](Cc2c[nH]c3ccccc23)NC(=O)[C@H](CCCNC(=N)N)NC(=O)[C@@H](N)CSSC[C@@H](C(=O)O)NC(=O)[C@H](CCCNC(=N)N)NC1=O [Analog A2] (H-CRWRLRLRC-OH; disulfide 1-9) | 3.8 | >100.0 | 24.0 | 9.9 | 14.0 | 2.0 | 13.0 | 7.6 | 20.0 | 18.0 | >125.0 |  | inhibited | inhibited | did not inhibit |  |
| N=C(N)NCCC[C@@H]1NC(=O)[C@H](CCCNC(=N)N)NC(=O)[C@H](Cc2c[nH]c3ccccc23)NC(=O)CNC(=O)[C@H](Cc2c[nH]c3ccccc23)NC(=O)[C@H](CCCNC(=N)N)NC(=O)[C@H](CCCNC(=N)N)NC(=O)[C@@H](N)CSSC[C@@H](C(N)=O)NC1=O [Analog A4] (H-CRRWGWRRC-NH2; disulfide 1-9) | 2.5 | 27.1 | 15.8 | 10.5 |  | 5.7 | 2.2 | 29.5 |  |  | 17.2 |  | inhibited | inhibited | partially or completely inhibited | inhibited |
